According to the supplement of paper PMC11061612:

Legend:
[1] = compound: Cn1cnc2c(F)c(Nc3ccc(Br)cc3Cl)c(C(=O)NOCCO)cc21 [Selumetinib]; details: max 10 µM
How it was run: (§1)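 After 24 hours at 37°C and 5% CO2 in 1536-well plates holding 7.5 μl of DMEM/F12 or RPMI with 10% FBS, cancer cell lines were dosed for 72 hours, with final DMSO typically 0.2%. Viability came from CellTiter-Glo 2.0 luminescence, scaled between the means of blank wells and DMSO wells. A non-linear mixed effects model fitted a two-parameter logistic curve to each dose response to give the single-agent IC50.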

[2] = compound: C[C@@H](c1ccc2nccn2c1)n1nnc2ncc(-c3cnn(C)c3)nc21 [Savolitinib]; details: max 1 µM
How it was run: as §1

[3] = compound: C[C@@H](Oc1cc(-c2cnn(C3CCNCC3)c2)cnc1N)c1c(Cl)ccc(F)c1Cl [Crizotinib]; details: max 10 µM
How it was run: as §1

[4] = compound: Cc1nc(-c2cn3c(n2)-c2ccc(-c4cnn(C(C)(C)C(N)=O)c4)cc2OCC3)n(C(C)C)n1 [Taselisib]; details: max 10 µM
How it was run: as §1

[5] = compound: CC1=C(C(=CC=C1)Cl)NC(=O)C2=CN=C(S2)NC3=CC(=NC(=N3)C)N4CCN(CC4)CCO [Dasatinib]; details: max 2 µM
How it was run: as §1

[6] = compound: CC1=CN2[C@@H](C1)C=NC3=CC(=C(C=C3C2=O)OC)OCCCCCOC4=C(C=C5C(=C4)N=C[C@@H]6CC(=CN6C5=O)C)OC [SG3199]; details: max 0.001 µM
How it was run: as §1

[7] = compound: N#Cc1cnc(Nc2cc(NC[C@H]3CNCCO3)c(C(F)(F)F)cn2)cn1 [SRA737]; details: max 10 µM
How it was run: as §1

[8] = compound: O=C(c1cc(Cc2n[nH]c(=O)c3ccccc23)ccc1F)N1CCN(C(=O)C2CC2)CC1 [Olaparib]; details: max 10 µM
How it was run: as §1

[9] = compound: O=c1[nH]cc(F)c(=O)[nH]1 [5-Fluorouracil]; details: max 20 µM
How it was run: as §1

[10] = compound: COc1cccc(OCCCN)c1-c1cc(Nc2cnc(C#N)cn2)n[nH]1 [Prexasertib]; details: max 1 µM
How it was run: as §1

[11] = compound: C1CN(CCC1(C(=O)N[C@@H](CCO)C2=CC=C(C=C2)Cl)N)C3=NC=NC4=C3C=CN4 [AZD5363]; details: max 10 µM
How it was run: as §1

[12] = compound: CCN(CCO)CCCOc1ccc2c(Nc3cc(CC(=O)Nc4cccc(F)c4)[nH]n3)ncnc2c1 [AZD2811]; details: max 1 µM
How it was run: as §1

[13] = compound: COc1cc([C@@H]2c3cc4c(cc3[C@@H](O[C@@H]3O[C@@H]5CO[C@@H](C)O[C@H]5[C@H](O)[C@H]3O)[C@H]3COC(=O)[C@H]23)OCO4)cc(OC)c1O [Etoposide]; details: max 10 µM
How it was run: as §1

[14] = compound: CC(=O)c1c(C)c2cnc(Nc3ccc(N4CCNCC4)cn3)nc2n(C2CCCC2)c1=O [Palbociclib]; details: max 10 µM
How it was run: as §1

[15] = compound: CC(=O)Nc1cccc(-n2c(=O)n(C3CC3)c(=O)c3c(Nc4ccc(I)cc4F)n(C)c(=O)c(C)c32)c1 [Trametinib]; details: max 1 µM
How it was run: as §1

[16] = compound: COc1cccc2c1C(=O)c1c(O)c3c(c(O)c1C2=O)C[C@@](O)(C(=O)CO)C[C@@H]3O[C@H]1C[C@H](N)[C@H](O)[C@H](C)O1 [Doxorubicin]; details: max 1 µM
How it was run: as §1

[17] = compound: NC1(c2ccc(-c3nc4ccn5c(=O)[nH]nc5c4cc3-c3ccccc3)cc2)CCC1 [MK-2206]; details: max 10 µM
How it was run: as §1

[18] = compound: C[C@@H]1COCCN1C2=NC(=NC(=C2)C3(CC3)[S@](=N)(=O)C)C4=C5C=CNC5=NC=C4 [AZD6738]; details: max 10 µM
How it was run: as §1

[19] = compound: COc1cc2ncnc(Nc3ccc(F)c(Cl)c3)c2cc1OCCCN1CCOCC1 [Gefitinib]; details: max 10 µM
How it was run: as §1

[20] = compound: COc1cc(Nc2ncc3c(n2)-c2ccc(Cl)cc2C(c2c(F)cccc2OC)=NC3)ccc1C(=O)O [Alisertib]; details: max 10 µM
How it was run: as §1

[21] = compound: C[C@@H](Nc1cc(F)cc(F)c1)c1cc(C(=O)N(C)C)cc2c(=O)cc(N3CCOCC3)oc12 [AZD8186]; details: max 10 µM
How it was run: as §1

[22] = compound: CS(=O)(=O)CCNCc1ccc(-c2ccc3ncnc(Nc4ccc(OCc5cccc(F)c5)c(Cl)c4)c3c2)o1 [Lapatinib]; details: max 10 µM
How it was run: as §1

[23] = compound: COc1nnc2ccc(N3CCC(c4ccc(OCCN5CCN(C)C(=O)[C@H]5C)cc4)CC3)nn12 [AZD5153]; details: max 1 µM
How it was run: as §1

[24] = compound: C=CCn1c(=O)c2cnc(Nc3ccc(N4CCN(C)CC4)cc3)nc2n1-c1cccc(C(C)(C)O)n1 [AZD1775]; details: max 3 µM
How it was run: as §1

[25] = compound: C1CC(C1)(C(=O)[O-])C(=O)[O-].N.N.[Pt+2] [Carboplatin]; details: max 10 µM
How it was run: as §1

[26] = compound: CN(C)CCCOc1ccc(-c2ccc3ncc4c(c3c2)n(C2CCOCC2)c(=O)n4C)cn1 [AZD0156]; details: max 3 µM
How it was run: as §1

[27] = compound: Cc1cc2ncnn2cc1Nc1ncc2c(n1)n(C1CCOCC1)c(=O)n2C [AZD7648]; details: max 10 µM
How it was run: as §1

[28] = compound: Cc1c2c(nn1C)CSCc1cc(n(C)n1)CSc1cc(c3ccccc3c1)OCCCc1c(C(=O)O)n(C)c3c-2c(Cl)ccc13 [AZD5991]; details: max 1 µM
How it was run: as §1

[29] = compound: CN(CC[C@H](CSC1=CC=CC=C1)NC2=C(C=C(C=C2)S(=O)(=O)NC(=O)C3=CC=C(C=C3)N4CCC(CC4)[C@H](C5=CC=CC=C5C6=CC=C(C=C6)Cl)O)S(=O)(=O)C(F)(F)F)CCO [AZD4320]; details: max 1 µM
How it was run: as §1

[30] = compound: Nc1ccn([C@@H]2O[C@H](CO)[C@@H](O)C2(F)F)c(=O)n1 [Gemcitabine]; details: max 0.3 µM
How it was run: as §1

[31] = compound: O=C(Nc1ccc2[nH]nc(-c3ccncc3)c2c1)[C@@H]1CCN(CC(=O)N2CCN(c3ccc(-c4ncccn4)cc3)CC2)C1; details: max 5 µM
How it was run: as §1

[32] = compound: CC(=O)O[C@H]1C(=O)[C@@]2(C)[C@H]([C@H](OC(=O)c3ccccc3)[C@]3(O)C[C@H](OC(=O)[C@H](O)[C@@H](NC(=O)c4ccccc4)c4ccccc4)C(C)=C1C3(C)C)[C@]1(OC(C)=O)CO[C@@H]1C[C@@H]2O [Paclitaxel]; details: max 3 µM
How it was run: as §1

[33] = compound: CC1(C)CCC(CN2CCN(c3ccc(C(=O)NS(=O)(=O)c4ccc(NCC5CCOCC5)c([N+](=O)[O-])c4)c(Oc4cnc5[nH]ccc5c4)c3)CC2)=C(c2ccc(Cl)cc2)C1 [Venetoclax]; details: max 1 µM
How it was run: as §1

[34] = compound: CCc1c2c(nc3ccc(O)cc13)-c1cc3c(c(=O)n1C2)COC(=O)[C@]3(O)CC [SN-38]; details: max 0.3 µM
How it was run: as §1

[35] = compound: CC(C)n1c(=O)n(C)c2cnc3cc(F)c(-c4ccc(OCCCN5CCCCC5)nc4)cc3c21 [AZD1390]; details: max 0.3 µM
How it was run: as §1

Cell Line	IC50, cell viability 72 h [1]	IC50, cell viability 72 h [2]	IC50, cell viability 72 h [3]	IC50, cell viability 72 h [4]	IC50, cell viability 72 h [5]	IC50, cell viability 72 h [6]	IC50, cell viability 72 h [7]	IC50, cell viability 72 h [8]	IC50, cell viability 72 h [9]	IC50, cell viability 72 h [10]	IC50, cell viability 72 h [11]	IC50, cell viability 72 h [12]	IC50, cell viability 72 h [13]	IC50, cell viability 72 h [14]	IC50, cell viability 72 h [15]	IC50, cell viability 72 h [16]	IC50, cell viability 72 h [17]	IC50, cell viability 72 h [18]	IC50, cell viability 72 h [19]	IC50, cell viability 72 h [20]	IC50, cell viability 72 h [21]	IC50, cell viability 72 h [22]	IC50, cell viability 72 h [23]	IC50, cell viability 72 h [24]	IC50, cell viability 72 h [25]	IC50, cell viability 72 h [26]	IC50, cell viability 72 h [27]	IC50, cell viability 72 h [28]	IC50, cell viability 72 h [29]	IC50, cell viability 72 h [30]	IC50, cell viability 72 h [31]	IC50, cell viability 72 h [32]	IC50, cell viability 72 h [33]	IC50, cell viability 72 h [34]	IC50, cell viability 72 h [35]
OVMIU (Ovarian Carcinoma)	> 10 µM	> 1 µM	> 10 µM	0.148 µM	0.209 µM	> 0.001 µM	> 10 µM	> 10 µM	> 20 µM	0.267 µM	> 10 µM	> 1 µM	> 10 µM	> 10 µM	0.07 µM	0.801 µM	> 10 µM	> 10 µM	3.2 µM	7.01 µM	> 10 µM	3.24 µM	0.302 µM	1.72 µM	> 10 µM	> 3 µM	> 10 µM	> 1 µM	> 1 µM	> 0.3 µM	3.19 µM	0.0777 µM	> 1 µM	> 0.3 µM	> 0.3 µM
PANC-03-27 (Pancreatic Carcinoma)	> 10 µM	> 1 µM	> 10 µM	4.6 µM	1.76 µM	> 0.001 µM	3.4 µM	> 10 µM	> 20 µM	0.00787 µM	> 10 µM	> 1 µM	> 10 µM	> 10 µM	0.271 µM	> 1 µM	> 10 µM	2.57 µM	> 10 µM	> 10 µM	> 10 µM	> 10 µM	> 1 µM	0.184 µM	> 10 µM	> 3 µM	> 10 µM	> 1 µM	> 1 µM	0.183 µM	3.08 µM	0.214 µM	> 1 µM	0.0498 µM	> 0.3 µM
PSN1 (Pancreatic Carcinoma)	0.952 µM	> 1 µM	7.76 µM	5.38 µM	0.244 µM	> 0.001 µM	> 10 µM	> 10 µM	7.84 µM	> 1 µM	> 10 µM	> 1 µM	8.6 µM	> 10 µM	0.0186 µM	> 1 µM	> 10 µM	> 10 µM	> 10 µM	> 10 µM	> 10 µM	> 10 µM	> 1 µM	1.63 µM	> 10 µM	> 3 µM	> 10 µM	> 1 µM	> 1 µM	0.0336 µM	0.193 µM	0.0619 µM	> 1 µM	0.11 µM	> 0.3 µM
